System: Mouse B16 melanoma cells
Experiment: Melanin production inhibition test (quantification of melanin)
Assay type: cell-based
Details: for Inhibitory effect on melanin production: class of minimum non-cytotoxic concentration giving melanin amount 80% or less of solvent group, B16 cells, three days after addition; for Minimum concentration (%): minimum concentration at which an inhibitory effect on melanin production was significantly exhibited in melanoma B16 cells
Description: A test for melanin production inhibition by the compounds of the formula (1) was conducted. The test method is as follows.
Melanin Production Inhibition Test
(1) Inoculation of Cells and Addition of Test Substances
Mouse B16 melanoma cells were inoculated in a six well plate at 100,000 cells/well. The next day, test substance solutions (solvent: DMSO) were added.
(3) Quantification of Melanin
The cells after the cell proliferation test were washed with PBS three times, and then lysed by addition of 200 μL of 1M NaOH to measure an absorbance at 475 nm. Using the value thus measured as a relative value of the melanin amount, a ratio of the melanin amount (%) of the test substance-added group to the test substance-absent group (group in which only the solvent was added) was calculated. The lower the ratio of the melanin amount, the higher the melanin production-inhibitory effect. […] The inhibitory effect on melanin production was evaluated according to the following criteria.
⊚: the minimum concentration for inhibition of melanin production was 1 ppm or less.
◯: the minimum concentration for inhibition of melanin production was more than 1 ppm and 10 ppm or less.

SMILES: Cc1cc(C)n(-c2nc(C)c(C)c(C)n2)n1 [Compound 5, 2-(3,5-dimethylpyrazol-1-yl)-4,5,6-trimethylpyrimidine]
- Inhibitory effect on melanin production: ⊚ (the minimum concentration for inhibition of melanin production was 1 ppm or less)

SMILES: Cc1cc(C)nc(-n2nc(C)cc2C)n1.Cl [Compound 2, 2-(3,5-dimethylpyrazol-1-yl)-4,6-dimethylpyrimidine hydrochloride]
- Inhibitory effect on melanin production: ⊚ (the minimum concentration for inhibition of melanin production was 1 ppm or less)

SMILES: Cc1cc(C)nc(-n2nc(C)c(C)c2C)n1 [Compound 4]
- Inhibitory effect on melanin production: ⊚ (the minimum concentration for inhibition of melanin production was 1 ppm or less)
- Minimum concentration (%): 3 × 10^−6%

SMILES: Cc1cc(C)nc(-n2nc(C)cc2C)n1 [Compound 1, 2-(3,5-dimethylpyrazol-1-yl)-4,6-dimethylpyrimidine]
- Inhibitory effect on melanin production: ⊚ (the minimum concentration for inhibition of melanin production was 1 ppm or less)
- Minimum concentration (%): 1 × 10^−6%

SMILES: CCc1cc(CC)n(-c2nc(C)cc(C)n2)n1 [Compound 3]
- Inhibitory effect on melanin production: ⊚ (the minimum concentration for inhibition of melanin production was 1 ppm or less)
- Minimum concentration (%): 3 × 10^−6%
